PMC12535076, “Neurotherapeutic effects of Vutiglabridin as a Paraoxonase-2 modulator in preclinical models of Parkinson’s disease” (Molecular Neurodegeneration, 2025)

Tests used:
MAO-A = target: T1, MAO-A (Homo sapiens, UniProt P21397); experiment: ROS Glo based MAO-A enzyme activity assay; assay type: biochemical; details: printed as 'separate MAO-B assay' within the MAO-A panel (b); read-out: IC50, ROS-Glo method, panel (b)
T1 sequence (P21397 1-527): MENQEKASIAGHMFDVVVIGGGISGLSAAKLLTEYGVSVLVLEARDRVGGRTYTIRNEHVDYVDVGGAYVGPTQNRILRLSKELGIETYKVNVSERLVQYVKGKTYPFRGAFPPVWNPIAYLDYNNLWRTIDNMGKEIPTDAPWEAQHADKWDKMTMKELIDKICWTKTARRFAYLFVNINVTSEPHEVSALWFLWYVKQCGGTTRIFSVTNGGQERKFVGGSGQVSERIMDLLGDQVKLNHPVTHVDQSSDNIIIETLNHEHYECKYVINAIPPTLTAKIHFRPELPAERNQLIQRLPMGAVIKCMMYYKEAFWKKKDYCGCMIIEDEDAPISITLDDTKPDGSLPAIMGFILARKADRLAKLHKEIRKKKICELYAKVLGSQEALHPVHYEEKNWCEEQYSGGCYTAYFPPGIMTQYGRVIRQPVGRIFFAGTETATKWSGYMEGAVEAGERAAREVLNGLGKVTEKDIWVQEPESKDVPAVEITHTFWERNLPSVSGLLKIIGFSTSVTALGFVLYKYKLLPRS
Procedure: An enzyme solution was prepared by diluting 10 µL of a 2.5 mg/mL MAO-A or MAO-B stock in 10 mL of 50 mM sodium phosphate buffer (pH 7.4). A substrate solution was prepared by diluting 200 µL of a 100 mM benzylamine (or tyramine) stock in 10 mL phosphate buffer to achieve a final concentration of 1 mM. For each 96-well plate experiment, 12.5 µL of a 1× H2O2 probe solution was added to 1 mL of the probe dilution buffer from the ROS Glo™ kit. Separately, 40 µL of cysteine and enhancer were diluted into 4 mL of Luciferin solution. In each well, 49 µL of the enzyme solution was dispensed, followed by 1 µL of the test compound, and incubated for 30 min. Then, 49 µL of the substrate solution was added, and the reaction proceeded at 37 °C for 60 min. Next, 10 µL of the H2O2 probe solution was added and incubated for 15 min. Subsequently, 40 µL of a luciferin solution containing cysteine and an enhancer was added, followed by an additional 30-minute incubation at 37 °C. Luminescence was subsequently recorded using a microplate luminescence reader (SpectraMax i3, Molecular Devices).

[1] = QWBA and plasma radioactivity after oral 14C-Vuti in rats; assay type: in vivo, Sprague-Dawley rat; details: abstract statement; species not stated there
Procedure: Male 8-week-old Sprague Dawley rats (n = 5, 16 h fasted; Charles River Laboratories Japan Inc., Yokohama, Japan) were orally administered 10 mg/kg of ^14C-Vuti (equivalent to radioactivity of 3.7 MBq/kg, Glaceum Inc., Suwon, Korea). After 2, 6, and 24 h, each rat was euthanized by CO2 inhalation. The nasal cavity and anus were filled with 4% w/v sodium carboxymethyl cellulose, and the carcass was frozen in a dry ice-acetone mixture. […] The radioactivity was measured by the bio-imaging analyzer system (FUJIX-BAS2500, Fujifilm, Tokyo, Japan; resolution µm, gradation 256, sensitivity 10000, latitude 4), in which the radioactivity in organs was converted to the photo-stimulated luminescence per unit area (PSL/mm^2) minus the background radioactivity of the plastic standard samples. Tissue radioactivity in whole-body auto-radiograms was quantified by densitometry using an MCID image analysis software (v. 7.0, MCID Image Analysis Software Solutions for Life Sciences, Cambridge, UK). Radioactivity concentrations were expressed as ng equivalents of ^14C-Vuti per gram tissue (ng eq/g tissue). […]
For measuring the radioactive concentration in the plasma, blood (250 uL) was collected from the tail vein of the animals (n = 3) of the exact same conditions as the animals used for QWBA assay. […] Then the tissue to blood ratio was calculated. […]

In the case of `CCOc1ccc(C2COc3c(ccc4c3CCC(C)(C)O4)C2)c(O)c1` (centres unmarked) [Vuti, Vutiglabridin], the IC50 (MAO-A) is reported as 24.7 µM and the “duration of presence in the brain” value [1] is reported as “over 24 h”.
